Experimental data: patent publication US20230146455A1, “TREATMENT OF INFLAMMATORY DISEASES WITH PEPTIDES AND PHARMACEUTICAL COMPOSITIONS” (Yuyu Pharma, Inc., priority 2020, published 2023)
Where “and” joins values, the source holds several entries; their conditions need not be identical. Equal entries are not always repeated. Where a SMILES comes first, the peptide text is derived from it. [ ]: non-standard residue; d: D form. Hyp = O=C(O)[C@@H]1C[C@@H](O)CN1

Test system: CCL20/MIP-3 alpha
Test: Example 9 Luminex, LPS hPBMCs: CCL20/MIP-3 alpha
Format: cell-based, human
Description: Treatment Human PBMCs were pretreated with YY-101, YDE-011 and YDE-043 or reference compound; Xiidra® at various concentration (ranging from 1 nM to 100 uM) for 2 h before stimulation. An equal volume of 0.5% DMSO was used as a vehicle control. Then, the cells were treated with LPS at 5 ug/ml. The supernatants from treated cells were harvested at 24 h and placed in a 96 well for Luminex cytokine & chemokine profiling using a Luminex 200 multiplex assay (Luminex; R&D system, USA).
The main study arm with triplicate wells per group in a 24-well plate: • 1. Blank • 2. PBMC: 0.5% DMSO • 3. PBMC+LPS (5 ug/ml) • 4. PBMC+YY-101 100 uM • 5. PBMC+YY-101 10 uM • 6. PBMC+YY-101 1 uM • 7. PBMC+YY-101 0.1 uM • 8. PBMC+YY-101 0.01 uM • 9. PBMC+LPS (5 ug/ml)+Xiidra®100 uM • 10. PBMC+LPS (5 ug/ml)+Xiidra® 10 uM • 11. PBMC+LPS (5 ug/ml)+Xiidra® 1 uM • 12. PBMC+LPS (5 ug/ml)+Xiidra®0.1 uM • 13. PBMC+LPS (5 ug/ml)+Xiidra®0.01 uM • 14. PBMC+LPS (5 ug/ml)+Xiidra®0.001 uM • 15. PBMC+LPS (5 ug/ml)+YY-101 100 uM • 16. PBMC+LPS (5 ug/ml)+YY-101 10 uM • 17. PBMC+LPS (5 ug/ml)+YY-101 1 uM • 18. PBMC+LPS (5 ug/ml)+YY-101 0.1 uM • 19. PBMC+LPS (5 ug/ml)+YY-101 0.01 uM • 20. PBMC+LPS (5 ug/ml)+YY-101 0.001 uM • 21. PBMC+LPS (5 ug/ml)+YDE-011 100 uM • 22. PBMC+LPS (5 ug/ml)+YDE-011 10 uM • 23. PBMC+LPS (5 ug/ml)+YDE-011 1 uM • 24. PBMC+LPS (5 ug/ml)+YDE-011 0.1 uM • 25. PBMC+LPS (5 ug/ml)+YDE-011 0.01 uM • 26. PBMC+LPS (5 ug/ml)+YDE-011 0.001 uM • 27. PBMC+LPS (5 ug/ml)+YDE-043 100 uM • 28. PBMC+LPS (5 ug/ml)+YDE-043 10 uM • 29. PBMC+LPS (5 ug/ml)+YDE-043 1 uM • 30. PBMC+LPS (5 ug/ml)+YDE-043 0.1 uM • 31. PBMC+LPS (5 ug/ml)+YDE-043 0.01 uM • 32. PBMC+LPS (5 ug/ml)+YDE-043 0.001 uM
Multiplex assay was used to measure 30 cytokines and chemokines. The 1:2, 1:10 and 1:200 diluted cell supernatant and serial dilution of the standard were dispensed into a 96 well plate at 50 ul/well. Then, the pre-mixed cocktail of antibody-coated magnetic beads was dispensed at 50 ul/well and incubated at room temperature for 2 h in a horizontal orbital microplate shaker at 800±500 rpm. The beads were washed using a magnetic device to prevent loss. The biotin-antibody was dispensed in 50 ul of each well and incubated at room temperature for 1 h in a shaker at 800±500 rpm. After washing, streptavidin-PE was added at 50 ul/well and incubated at room temperature for 30 min in a shaker under the same conditions. Finally, after washing, wash buffer (100 ul/well) was added to the plate and incubated in a shaker for 2 min. The Luminex™ 200 setting were set according to the manufacturer's protocol. The data was calculated with a standard five-parameter logistic nonlinear regression analysis of the data (xPonent software 4.2, USA). The levels of cytokine/chemokine are normalized to the live cell counts (1×10^5 cells/mL) and presented as concentrations per mL (pg/mL or ng/mL).

[1] = PBMC + LPS(5 ug/ml) + test article 0.001 uM, Mean
[2] = PBMC + LPS(5 ug/ml) + test article 0.001 uM, individual replicate
[3] = PBMC + LPS(5 ug/ml) + test article 0.01 uM, Mean
[4] = PBMC + LPS(5 ug/ml) + test article 0.01 uM, individual replicate
[5] = PBMC + LPS(5 ug/ml) + test article 0.1 uM, Mean
[6] = PBMC + LPS(5 ug/ml) + test article 0.1 uM, individual replicate
[7] = PBMC + LPS(5 ug/ml) + test article 1 uM, Mean
[8] = PBMC + LPS(5 ug/ml) + test article 1 uM, individual replicate
[9] = PBMC + LPS(5 ug/ml) + test article 10 uM, Mean
[10] = PBMC + LPS(5 ug/ml) + test article 10 uM, individual replicate
[11] = PBMC + LPS(5 ug/ml) + test article 100 uM, Mean
[12] = PBMC + LPS(5 ug/ml) + test article 100 uM, individual replicate
[13] = PBMC + test article 0.01 uM, no LPS, Mean
[14] = PBMC + test article 0.01 uM, no LPS, individual replicate
[15] = PBMC + test article 0.1 uM, no LPS, Mean
[16] = PBMC + test article 0.1 uM, no LPS, individual replicate
[17] = PBMC + test article 1 uM, no LPS, Mean
[18] = PBMC + test article 1 uM, no LPS, individual replicate
[19] = PBMC + test article 10 uM, no LPS, Mean
[20] = PBMC + test article 10 uM, no LPS, individual replicate
[21] = PBMC + test article 100 uM, no LPS, Mean
[22] = PBMC + test article 100 uM, no LPS, individual replicate

For `CC(C)C[C@H](NC(=O)CNC(=O)[C@H](CC(=O)O)NC(=O)[C@H](CCC(N)=O)NC(=O)CNC(=O)[C@@H]1C[C@@H](O)CN1)C(=O)N[C@@H](C)C(=O)NCC(=O)N1CCC[C@H]1C(=O)N[C@@H](CCCCN)C(=O)O` [YY-101] (H-[Hyp]GQDGLAGPK-OH; N-terminus and C-terminus assumed), the “Concentration, CCL20/MIP-3 alpha” value [1] was 315.3 pg/mL, the “MFI, CCL20/MIP-3 alpha” value [1] was 346.7 and the “conc/live cell, CCL20/MIP-3 alpha” value [1] was 49.1 pg/10^5. For the same molecule, the “Concentration, CCL20/MIP-3 alpha” value [2] was 301.0 pg/mL and 289.9 pg/mL and 355.1 pg/mL, the “MFI, CCL20/MIP-3 alpha” value [2] was 329.0 and 315.5 and 395.5 and the “conc/live cell, CCL20/MIP-3 alpha” value [2] was 52.8 pg/10^5 and 40.8 pg/10^5 and 53.8 pg/10^5. The “Concentration, CCL20/MIP-3 alpha” value [3] was 377.7 pg/mL, the “MFI, CCL20/MIP-3 alpha” value [3] was 423.7 and the “conc/live cell, CCL20/MIP-3 alpha” value [3] was 61.2 pg/10^5. For the same molecule, the “Concentration, CCL20/MIP-3 alpha” value [4] was 383.7 pg/mL and 338.9 pg/mL and 410.6 pg/mL, the “MFI, CCL20/MIP-3 alpha” value [4] was 431.0 and 375.5 and 464.5 and the “conc/live cell, CCL20/MIP-3 alpha” value [4] was 60.0 pg/10^5 and 56.5 pg/10^5 and 67.3 pg/10^5. For the same molecule, the “Concentration, CCL20/MIP-3 alpha” value [5] was 364.1 pg/mL, the “MFI, CCL20/MIP-3 alpha” value [5] was 406.7 and the “conc/live cell, CCL20/MIP-3 alpha” value [5] was 62.5 pg/10^5. For the same molecule, the “Concentration, CCL20/MIP-3 alpha” value [6] was 378.5 pg/mL and 364.4 pg/mL and 349.4 pg/mL, the “MFI, CCL20/MIP-3 alpha” value [6] was 424.5 and 407.0 and 388.5 and the “conc/live cell, CCL20/MIP-3 alpha” value [6] was 61.0 pg/10^5 and 70.1 pg/10^5 and 56.4 pg/10^5. For the same molecule, the “Concentration, CCL20/MIP-3 alpha” value [7] was 338.5 pg/mL, the “MFI, CCL20/MIP-3 alpha” value [7] was 375.0 and the “conc/live cell, CCL20/MIP-3 alpha” value [7] was 52.1 pg/10^5. The “Concentration, CCL20/MIP-3 alpha” value [8] was 323.0 pg/mL and 330.0 pg/mL and 362.4 pg/mL, the “MFI, CCL20/MIP-3 alpha” value [8] was 356.0 and 364.5 and 404.5 and the “conc/live cell, CCL20/MIP-3 alpha” value [8] was 51.3 pg/10^5 and 46.5 pg/10^5 and 58.4 pg/10^5. For the same molecule, the “Concentration, CCL20/MIP-3 alpha” value [9] was 368.2 pg/mL, the “MFI, CCL20/MIP-3 alpha” value [9] was 411.8 and the “conc/live cell, CCL20/MIP-3 alpha” value [9] was 55.3 pg/10^5. The “Concentration, CCL20/MIP-3 alpha” value [10] was 324.3 pg/mL and 377.7 pg/mL and 402.6 pg/mL, the “MFI, CCL20/MIP-3 alpha” value [10] was 357.5 and 423.5 and 454.5 and the “conc/live cell, CCL20/MIP-3 alpha” value [10] was 54.0 pg/10^5 and 59.0 pg/10^5 and 53.0 pg/10^5. For the same molecule, the “Concentration, CCL20/MIP-3 alpha” value [11] was 578.6 pg/mL, the “MFI, CCL20/MIP-3 alpha” value [11] was 677.7 and the “conc/live cell, CCL20/MIP-3 alpha” value [11] was 100.0 pg/10^5. The “Concentration, CCL20/MIP-3 alpha” value [12] was 590.1 pg/mL and 591.7 pg/mL and 553.9 pg/mL, the “MFI, CCL20/MIP-3 alpha” value [12] was 692.5 and 694.5 and 646.0 and the “conc/live cell, CCL20/MIP-3 alpha” value [12] was 93.7 pg/10^5 and 95.4 pg/10^5 and 110.8 pg/10^5. For the same molecule, the “Concentration, CCL20/MIP-3 alpha” value [13] was 12.1 pg/mL, the “MFI, CCL20/MIP-3 alpha” value [13] was 11.0 and the “conc/live cell, CCL20/MIP-3 alpha” value [13] was 2.5 pg/10^5. The “Concentration, CCL20/MIP-3 alpha” value [14] was 7.3 pg/mL and 16.8 pg/mL, the “MFI, CCL20/MIP-3 alpha” value [14] was 7.5 and 14.5 and the “conc/live cell, CCL20/MIP-3 alpha” value [14] was 1.4 pg/10^5 and 3.5 pg/10^5. For the same molecule, the “Concentration, CCL20/MIP-3 alpha” value [15] was 9.5 pg/mL, the “MFI, CCL20/MIP-3 alpha” value [15] was 9.0 and the “conc/live cell, CCL20/MIP-3 alpha” value [15] was 1.8 pg/10^5. For the same molecule, the “Concentration, CCL20/MIP-3 alpha” value [16] was 7.3 pg/mL and 11.6 pg/mL, the “MFI, CCL20/MIP-3 alpha” value [16] was 7.5 and 10.5 and the “conc/live cell, CCL20/MIP-3 alpha” value [16] was 1.7 pg/10^5 and 2.0 pg/10^5. For the same molecule, the “Concentration, CCL20/MIP-3 alpha” value [17] was 8.8 pg/mL, the “MFI, CCL20/MIP-3 alpha” value [17] was 8.5 and the “conc/live cell, CCL20/MIP-3 alpha” value [17] was 1.6 pg/10^5. The “Concentration, CCL20/MIP-3 alpha” value [18] was 7.3 pg/mL and 10.2 pg/mL, the “MFI, CCL20/MIP-3 alpha” value [18] was 7.5 and 9.5 and the “conc/live cell, CCL20/MIP-3 alpha” value [18] was 1.3 pg/10^5 and 1.9 pg/10^5. The “Concentration, CCL20/MIP-3 alpha” value [19] was 41.3 pg/mL, the “MFI, CCL20/MIP-3 alpha” value [19] was 36.5 and the “conc/live cell, CCL20/MIP-3 alpha” value [19] was 6.6 pg/10^5. For the same molecule, the “Concentration, CCL20/MIP-3 alpha” value [20] was 57.4 pg/mL and 25.3 pg/mL, the “MFI, CCL20/MIP-3 alpha” value [20] was 51.5 and 21.5 and the “conc/live cell, CCL20/MIP-3 alpha” value [20] was 9.0 pg/10^5 and 4.1 pg/10^5. The “Concentration, CCL20/MIP-3 alpha” value [21] was 22.4 pg/mL, the “MFI, CCL20/MIP-3 alpha” value [21] was 19.3 and the “conc/live cell, CCL20/MIP-3 alpha” value [21] was 3.4 pg/10^5. The “Concentration, CCL20/MIP-3 alpha” value [22] was 29.8 pg/mL and 14.9 pg/mL, the “MFI, CCL20/MIP-3 alpha” value [22] was 25.5 and 13.0 and the “conc/live cell, CCL20/MIP-3 alpha” value [22] was 4.7 pg/10^5 and 2.1 pg/10^5. The “LPS-induced CCL20 levels (in words)” value (at 100.iM, LPS 5 ug/mL 24 hrs) was “further increased”.
